Reference: the supplement of paper PMC11208160

experiment: recombinant UMI read abundance after kanamycin selection (control-corrected) (log10(CPM+1)); higher = more efficient recombination; extreme values may be limits of the assay; sequences stand for … in AGTGCAGAGAAAATCGGCCAGTTTTCTCTGCCTGCAGTCCGCATGCCGTGGGACCCCTTGGGTTCTAACCTGTTGCCTAGATTTATGCAGCGGACTGCCTTTCTCCCAAAGTGATAAACCGG…AGGTTGGTTTCACT; site = the 11-nt donor
Method in brief: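 Each donor and donor-binding-loop pair was tracked by a 12-nt UMI on a plasmid carrying a promoterless kanamycin gene. With a second plasmid supplying a fixed target and T7-inducible IS621 bridge recombinase, the pool was plated in Escherichia coli on IPTG (0.07 mM) plus kanamycin or unselected. Sequencing of recombinant UMIs across the donor–target junction gave counts expressed as log10(CPM+1) after replicate averaging and control-derived scaling.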
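Also: IS621 bridge recombinase in Escherichia coli cells against a fixed T5 target plasmid.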

Sequence	recombinant UMI read abundance (log10)
CCCGGTCCATGGACCGGTTTTCCCGGTAATCCGTATTTGCA (site CCCGATCCTTG)	0
GGGGCAACATGGACCGGTTTTCCCGGTAATCCGTATTTGCA (site GGGGCATCTTG)	0
CAGGGGTCATGGACCGGTTTTCCCGGTAATCCGTATTTGAA (site CAGGGGTCTTT)	3.02
GGTACGTCATGGACCGGTTTTCCCGGTAATCCGTATTTGTT (site AGTACGTCTAA)	0.0112
CGTTTGGCATGGACCGGTTTTCCCGGTAATCCGTATTTGCA (site CGTTTGGCTGG)	0
TAAAGTCCATGGACCGGTTTTCCCGGTAATCCGTATTTGCA (site TAAAGTCCTTA)	0.00275
CTAGTATCATGGACCGGTTTTCCCGGTAATCCGTATTTGGT (site CTAGTATCTAC)	1.85
GCATCTACATGGACCGGTTTTCCCGGTAATCCGTATTTGTG (site GCATCTACTCA)	0.968
GTGTGCACATGGACCGGTTTTCCCGGTAATCCGTATTTGTA (site GTGTGCACTTA)	2.15
CGAGCACCATGGACCGGTTTTCCCGGTAATCCGTATTTGCT (site CGAGCACCTAG)	0
ATGTTCCCATGGACCGGTTTTCCCGGTAATCCGTATTTGTG (site AAGTTCCCTCA)	0.0217
CCAGGTGCATGGACCGGTTTTCCCGGTAATCCGTATTTGAT (site CAAGGTGCTAT)	0.441
TTTCGAGCATGGACCGGTTTTCCCGGTAATCCGTATTTGCA (site ATTCGAGCTTG)	0.411
CGGCGCTCATGGACCGGTTTTCCCGGTAATCCGTATTTGAT (site CGGCGCTCTAT)	2.65
TCGGAAACATGGACCGGTTTTCCCGGTAATCCGTATTTGGT (site TCGGAAACTAC)	0.88
AGGAACCCATGGACCGGTTTTCCCGGTAATCCGTATTTGCA (site AGGAAGACTTG)	0
CGTTAGGCATGGACCGGTTTTCCCGGTAATCCGTATTTGAG (site CGTTAGTCTCT)	0.173
CTCTCCACATGGACCGGTTTTCCCGGTAATCCGTATTTGTC (site CTCTCCACTGA)	2.77
CTCTAGCCATGGACCGGTTTTCCCGGTAATCCGTATTTGCC (site CCCTAGCCTGG)	0

Sequence	recombinant UMI read abundance (log10)
TACTTGACATGGACCGGTTTTCCCGGTAATCCGTATTTGGT (site TACTTGACTAC)	0.209
GAAAGTCCATGGACCGGTTTTCCCGGTAATCCGTATTTGTA (site GAAAGTCCTTA)	0.0817
TTTGAGACATGGACCGGTTTTCCCGGTAATCCGTATTTGGT (site TTTGAGACTAC)	0.511
GGAGGGGCATGGACCGGTTTTCCCGGTAATCCGTATTTGGT (site GGAGGGGCTAC)	0.699
CACGGCCCATGGACCGGTTTTCCCGGTAATCCGTATTTGGT (site CACGGCCCTAA)	0.0236
CACGCCCCATGGACCGGTTTTCCCGGTAATCCGTATTTGTT (site CACGCCCCTAA)	0.348
GAATGAACATGGACCGGTTTTCCCGGTAATCCGTATTTGGT (site GAATGAACTAC)	1.55
AGGGTACCATGGACCGGTTTTCCCGGTAATCCGTATTTGTA (site AGGGTACCTTA)	0.0065
GAAGATCCATGGACCGGTTTTCCCGGTAATCCGTATTTGTT (site GAAGATCCTAA)	1.25
CTAGTATCATGGACCGGTTTTCCCGGTAATCCGTATTTGGC (site CTAGTATCTGT)	2.76
ACCCTTTCATGGACCGGTTTTCCCGGTAATCCGTATTTGAC (site AGCCTTTCTGT)	0
CCCATATCATGGACCGGTTTTCCCGGTAATCCGTATTTGTT (site CCCATATCTGA)	0
GTTAAAACATGGACCGGTTTTCCCGGTAATCCGTATTTGGC (site GTTACAACTGC)	0
TCAGTAGCATGGACCGGTTTTCCCGGTAATCCGTATTTGGC (site TCAGTAGCTGC)	1.54
ACTACACCATGGACCGGTTTTCCCGGTAATCCGTATTTGGT (site ACTACACCTAC)	0
CAATCGTCATGGACCGGTTTTCCCGGTAATCCGTATTTGCT (site CGATCATCTAG)	0
GTAGGTACATGGACCGGTTTTCCCGGTAATCCGTATTTGAC (site TTAGGTACTGT)	1.65
CTGGAAGCATGGACCGGTTTTCCCGGTAATCCGTATTTGCA (site CTGGAAACTTG)	0.803
